Assay results published in the CheMixHub viscosity set.

Assay: xn = mol fraction of the nth substance listed

O=C1CCCCCO1 + CNC(C)=O
viscosity [mPa·s], 101 kPa
Conditions | x2 = 0.0922 | x2 = 0.2381 | x2 = 0.3459 | x2 = 0.4411 | x2 = 0.5823 | x2 = 0.6289 | x2 = 0.6641 | x2 = 0.7792 | x2 = 0.9465
303.15 K | 4.458 | 3.929 | 3.6 | 3.366 | 3.201 | 3.187 | 3.218 | 3.308 | 3.629
308.15 K | 3.994 | 3.609 | 3.358 | 3.162 | 2.962 | 2.921 | 2.912 | 2.895 | 3.062
313.15 K | 3.543 | 3.135 | 2.944 | 2.76 | 2.602 | 2.552 | 2.532 | 2.527 | 2.773
318.15 K | 3.182 | 2.761 | 2.616 | 2.479 | 2.372 | 2.33 | 2.348 | 2.349 | 2.453

O=C1c2ccccc2C(=O)C1(O)O + CCCC[N+](CCCC)(CCCC)CCCC.O=S(=O)([O-])O
Conditions | viscosity [mPa·s]
323.15 K, 100 kPa, x2 = 0.571 | 48500

C=CC#N + CCCCOC(C)=O
viscosity [mPa·s]
Conditions | 298.15 K | 303.15 K | 308.15 K
101.3 kPa, x1 = 0.0988 | – | 0.6248 | –
101.3 kPa, x1 = 0.2033 | – | 0.5998 | –
101.3 kPa, x1 = 0.3022 | – | 0.5737 | –
101.3 kPa, x1 = 0.401 | – | 0.5437 | –
101.3 kPa, x1 = 0.4962 | – | 0.5133 | –
101.3 kPa, x1 = 0.5941 | – | 0.4775 | –
101.3 kPa, x1 = 0.6991 | – | 0.4364 | –
101.3 kPa, x1 = 0.7966 | – | 0.3951 | –
101.3 kPa, x1 = 0.8992 | – | 0.3527 | –
101.33 kPa, x1 = 0.099 | 0.651 | 0.607 | 0.571
101.33 kPa, x1 = 0.1971 | 0.626 | 0.582 | 0.547
101.33 kPa, x1 = 0.2999 | 0.596 | 0.553 | 0.522
101.33 kPa, x1 = 0.404 | 0.561 | 0.524 | 0.494
101.33 kPa, x1 = 0.5006 | 0.526 | 0.49 | 0.464
101.33 kPa, x1 = 0.5992 | 0.488 | 0.458 | 0.433
101.33 kPa, x1 = 0.7004 | 0.449 | 0.421 | 0.398
101.33 kPa, x1 = 0.8014 | 0.412 | 0.384 | 0.365
101.33 kPa, x1 = 0.9031 | 0.374 | 0.349 | 0.33

C=CC#N + ClC(Cl)(Cl)Cl
viscosity [mPa·s], 101 kPa
Conditions | 293.15 K | 298.15 K | 303.15 K | 313.15 K | 323.15 K
x1 = 0.007 | 0.988 | 0.911 | 0.847 | 0.749 | 0.671
x1 = 0.028 | 0.979 | 0.903 | 0.841 | 0.772 | 0.695
x1 = 0.126 | 0.853 | 0.783 | 0.721 | 0.661 | 0.616

CC(=O)CC(C)=O + CCCC(C)O
298.15 K, 101 kPa
Conditions | viscosity [mPa·s]
x1 = 0.1 | 2.324
x1 = 0.2 | 1.65
x1 = 0.3 | 1.276
x1 = 0.4 | 1.082
x1 = 0.5 | 0.983
x1 = 0.6 | 0.918
x1 = 0.7 | 0.855
x1 = 0.8 | 0.787
x1 = 0.9 | 0.725

CCC(C)(C)O + CC#N
298.15 K, 101 kPa
Conditions | viscosity [mPa·s]
x1 = 0.1002 | 0.387
x1 = 0.1989 | 0.45
x1 = 0.2988 | 0.543
x1 = 0.3988 | 0.667
x1 = 0.4964 | 0.832
x1 = 0.6004 | 1.069
x1 = 0.6969 | 1.375
x1 = 0.7994 | 1.832
x1 = 0.8983 | 2.493
x1 = 0.958 | 3.032

C=CC#N + CS(C)=O
303.15 K, 101.3 kPa
Conditions | viscosity [mPa·s]
x1 = 0.102 | 1.529
x1 = 0.2051 | 1.288
x1 = 0.3025 | 1.096
x1 = 0.3994 | 0.9277
x1 = 0.5057 | 0.771
x1 = 0.6018 | 0.6508
x1 = 0.7045 | 0.5395
x1 = 0.8066 | 0.4478
x1 = 0.8999 | 0.3757

CCCCN(CCCC)CCCC + CCCCCC
viscosity [mPa·s], 101 kPa
Conditions | x1 = 0.0982 | x1 = 0.1945 | x1 = 0.3994 | x1 = 0.495 | x1 = 0.5384 | x1 = 0.7924 | x1 = 0.903
303.15 K | 0.3305 | 0.3909 | 0.5434 | 0.623 | 0.6623 | 0.923 | 1.05
313.15 K | 0.289 | 0.3449 | 0.4813 | 0.5536 | 0.588 | 0.8088 | 0.91

CC(=O)CC(C)=O + CCCCCO
298.15 K, 101 kPa
Conditions | viscosity [mPa·s]
x1 = 0.1 | 2.509
x1 = 0.2 | 1.944
x1 = 0.3 | 1.55
x1 = 0.4 | 1.263
x1 = 0.5 | 1.05
x1 = 0.6 | 0.897
x1 = 0.7 | 0.796
x1 = 0.8 | 0.743
x1 = 0.9 | 0.722

C=CC#N + CO
viscosity [mPa·s], 101.33 kPa
Conditions | x1 = 0.1021 | x1 = 0.2197 | x1 = 0.302 | x1 = 0.4017 | x1 = 0.5035 | x1 = 0.6614 | x1 = 0.6991 | x1 = 0.7966 | x1 = 0.8985
298.15 K | 0.483 | 0.435 | 0.41 | 0.388 | 0.367 | 0.351 | 0.346 | 0.34 | 0.338
303.15 K | 0.453 | 0.41 | 0.387 | 0.367 | 0.354 | 0.337 | 0.329 | 0.325 | 0.322
308.15 K | 0.428 | 0.387 | 0.366 | 0.348 | 0.331 | 0.318 | 0.315 | 0.311 | 0.309
